{"source": "ChEMBL document CHEMBL1629525", "about": "“Synthesis and characterization of 1,3-dihydro-benzo[b][1,4]diazepin-2-one derivatives: Part 4. In vivo active potent and selective non-competitive metabotropic glutamate receptor 2/3 antagonists” (Bioorg Med Chem Lett, 2010)", "key": {"[1]": {"organism": "Rattus norvegicus", "test": "Induction of working memory impairment in rat by DMTP test", "assay_type": "functional, organism-based"}, "[2]": {"test": "Thermodynamic solubility of the compound at pH 3", "assay_type": "physicochemical", "settings": "buffer"}, "[3]": {"tested_on": "Rattus norvegicus", "test": "Neurotoxicity in rat assessed as effect on spontaneous locomotor activity upto 30 mg/kg, po", "assay_type": "toxicity, organism-based", "parameters": "dose 30 mg/kg, route oral", "settings": "in vivo"}, "[4]": {"tested_on": "Rattus norvegicus", "test": "Antagonist activity at rat mGluR2 assessed as inhibition of LY354740-induced hypoactivity at 10 mg/kg, po", "assay_type": "functional, organism-based", "parameters": "dose 10 mg/kg"}, "[5]": {"target": "T1, Metabotropic glutamate receptor 2 (Rattus norvegicus, UniProt P31421)", "T1 sequence (P31421 whole entry)": "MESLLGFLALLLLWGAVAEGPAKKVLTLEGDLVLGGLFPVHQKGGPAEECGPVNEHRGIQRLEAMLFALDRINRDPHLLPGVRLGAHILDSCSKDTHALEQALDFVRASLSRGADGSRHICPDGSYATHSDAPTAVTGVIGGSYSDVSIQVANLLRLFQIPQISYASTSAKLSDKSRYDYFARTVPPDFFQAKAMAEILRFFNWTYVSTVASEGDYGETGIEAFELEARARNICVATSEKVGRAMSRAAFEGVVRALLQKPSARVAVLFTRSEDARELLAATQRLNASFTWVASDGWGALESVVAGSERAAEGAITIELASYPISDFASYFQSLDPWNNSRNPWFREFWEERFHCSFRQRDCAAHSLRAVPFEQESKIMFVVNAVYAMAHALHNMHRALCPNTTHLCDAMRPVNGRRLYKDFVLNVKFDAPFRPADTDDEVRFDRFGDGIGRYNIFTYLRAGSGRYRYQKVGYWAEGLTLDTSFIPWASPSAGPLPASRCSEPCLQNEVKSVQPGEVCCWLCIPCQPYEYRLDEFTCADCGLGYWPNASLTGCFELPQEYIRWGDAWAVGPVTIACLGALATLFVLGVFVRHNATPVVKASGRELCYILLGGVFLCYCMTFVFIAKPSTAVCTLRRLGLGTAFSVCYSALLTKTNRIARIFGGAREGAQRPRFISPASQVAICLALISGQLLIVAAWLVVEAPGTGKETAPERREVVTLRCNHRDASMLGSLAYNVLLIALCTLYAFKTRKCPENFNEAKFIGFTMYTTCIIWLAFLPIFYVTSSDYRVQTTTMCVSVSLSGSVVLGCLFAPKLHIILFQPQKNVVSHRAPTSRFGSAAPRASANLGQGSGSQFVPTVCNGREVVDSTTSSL", "test": "Partial displacement of [3H]LY354740 from recombinant rat mGluR2"}, "[6]": {"tested_on": "Rattus norvegicus", "test": "Antiamnesic activity in rat assessed as partial inhibition of LY354740-induced impairment of working memory at 3 mg/kg, po by DMTP test", "assay_type": "functional, organism-based", "parameters": "dose 3 mg/kg"}, "[7]": {"test": "Clearance in rat at 2.5 mg/kg, iv", "assay_type": "ADME, organism-based", "parameters": "dose 2.5 mg/kg, route intravenous", "settings": "in vivo"}, "[8]": {"organism": "Homo sapiens", "test": "Induction of cognitive impairment in human", "assay_type": "functional, organism-based"}, "[9]": {"test": "Oral bioavailability in rat at 10 mg/kg, po", "assay_type": "ADME, organism-based", "settings": "in vivo"}, "[10]": {"target": "Metabotropic glutamate receptor 3 (Rattus norvegicus, UniProt P31422)", "sequence (P31422 whole entry)": "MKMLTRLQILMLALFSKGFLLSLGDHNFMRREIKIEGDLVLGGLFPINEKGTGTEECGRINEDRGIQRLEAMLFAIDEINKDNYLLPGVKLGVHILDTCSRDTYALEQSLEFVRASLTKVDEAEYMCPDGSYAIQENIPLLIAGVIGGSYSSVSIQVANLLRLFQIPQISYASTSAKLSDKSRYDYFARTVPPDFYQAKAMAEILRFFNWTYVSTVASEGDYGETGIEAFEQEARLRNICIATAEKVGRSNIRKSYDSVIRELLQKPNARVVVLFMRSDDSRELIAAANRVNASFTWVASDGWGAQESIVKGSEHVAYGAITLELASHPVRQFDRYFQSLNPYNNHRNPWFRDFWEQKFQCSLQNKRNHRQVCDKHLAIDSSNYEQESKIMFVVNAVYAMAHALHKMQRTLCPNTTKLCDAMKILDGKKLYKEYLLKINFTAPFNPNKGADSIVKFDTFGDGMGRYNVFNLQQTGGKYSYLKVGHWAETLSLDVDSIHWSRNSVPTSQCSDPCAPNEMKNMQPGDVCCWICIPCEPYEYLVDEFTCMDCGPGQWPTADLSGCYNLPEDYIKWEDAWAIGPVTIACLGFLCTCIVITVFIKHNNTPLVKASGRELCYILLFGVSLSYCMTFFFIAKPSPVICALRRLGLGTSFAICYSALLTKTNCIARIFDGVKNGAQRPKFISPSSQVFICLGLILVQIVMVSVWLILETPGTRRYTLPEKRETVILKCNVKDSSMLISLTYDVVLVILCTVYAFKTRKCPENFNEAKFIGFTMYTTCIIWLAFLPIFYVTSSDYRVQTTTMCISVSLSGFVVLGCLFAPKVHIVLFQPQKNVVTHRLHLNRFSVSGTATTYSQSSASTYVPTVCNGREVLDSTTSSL", "test": "Antagonist activity at rat mGluR3 receptor expressed in CHO cells assessed as inhibition of GIRK current", "assay_type": "functional, cell-based"}, "[11]": {"tested_on": "Rattus norvegicus", "test": "Agonist activity at rat mGluR3 assessed as decrease in spontaneous locomotor activity at 10 mg/kg, sc after 30 mins", "assay_type": "functional, organism-based", "parameters": "dose 10 mg/kg"}, "[12]": {"tested_on": "Rattus norvegicus", "test": "Antiamnesic activity in rat assessed as partial reversal of scopolamine-induced impairment of working memory at 3 mg/kg, po by DMTP test", "assay_type": "functional, organism-based", "parameters": "dose 3 mg/kg"}, "[13]": {"tested_on": "Rattus norvegicus", "test": "Agonist activity at rat mGluR2 assessed as decrease in spontaneous locomotor activity at 10 mg/kg, sc after 30 mins", "assay_type": "functional, organism-based", "parameters": "dose 10 mg/kg"}, "[14]": {"tested_on": "Rattus norvegicus", "test": "Neurotoxicity in rat assessed as locomotor activity upto 30 mg/kg, po by rotarod test", "assay_type": "toxicity, organism-based", "parameters": "dose 30 mg/kg, route oral", "settings": "in vivo"}, "[15]": {"target": "Cytochrome P450 3A4 (Homo sapiens, UniProt P08684)", "sequence (P08684 whole entry)": "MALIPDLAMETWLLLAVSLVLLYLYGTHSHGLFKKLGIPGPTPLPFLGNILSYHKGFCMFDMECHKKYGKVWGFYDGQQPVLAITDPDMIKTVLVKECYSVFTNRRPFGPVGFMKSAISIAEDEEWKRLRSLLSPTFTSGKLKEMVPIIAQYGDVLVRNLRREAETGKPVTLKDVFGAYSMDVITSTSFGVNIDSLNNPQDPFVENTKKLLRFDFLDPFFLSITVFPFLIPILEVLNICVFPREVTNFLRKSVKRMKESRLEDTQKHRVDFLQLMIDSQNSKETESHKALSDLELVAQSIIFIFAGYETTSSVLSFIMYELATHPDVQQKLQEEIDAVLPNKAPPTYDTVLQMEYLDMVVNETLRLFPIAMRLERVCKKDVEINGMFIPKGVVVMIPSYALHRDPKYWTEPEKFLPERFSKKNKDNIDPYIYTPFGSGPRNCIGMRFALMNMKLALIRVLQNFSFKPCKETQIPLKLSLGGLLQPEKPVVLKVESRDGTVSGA", "test": "Inhibition of CYP3A4", "assay_type": "ADME"}, "[16]": {"test": "Volume of dustribution at steady state in rat at 2.5 mg/kg, iv", "assay_type": "ADME, organism-based", "parameters": "dose 2.5 mg/kg, route intravenous", "settings": "in vivo, read-out: Vdss"}, "[17]": {"organism": "Rattus norvegicus", "test": "Amnesic activity in rat assessed as missed trials by DMTP test", "assay_type": "functional, organism-based"}, "[18]": {"tested_on": "Rattus norvegicus", "test": "Antiamnesic activity in rat assessed as partial inhibition of LY354740-induced impairment of working memory at 10 mg/kg, po by DMTP test", "assay_type": "functional, organism-based", "parameters": "dose 10 mg/kg"}, "[19]": {"tested_on": "Liver microsomes", "test": "Clearance in rat liver microsomes", "assay_type": "ADME, Microsome"}, "[20]": {"tested_on": "Rhesus monkey", "test": "Induction of working memory impairment in Rhesus monkey by DMTP test", "assay_type": "functional, organism-based", "settings": "Macaca mulatta"}, "[21]": {"tested_on": "Rattus norvegicus", "test": "Antiamnesic activity in rat assessed as partial reversal of scopolamine-induced impairment of working memory at 0.06 mg/kg, sc by DMTP test", "assay_type": "functional, organism-based", "parameters": "dose 0.06 mg/kg"}, "[22]": {"target": "T1, Metabotropic glutamate receptor 2", "test": "Antagonist activity at rat mGluR2 receptor expressed in CHO cells assessed as inhibition of GIRK current", "assay_type": "functional, cell-based"}, "[23]": {"organism": "Rattus norvegicus", "test": "Amnesic activity in rat assessed as latency to response by DMTP test", "assay_type": "functional, organism-based"}, "[24]": {"target": "T1, Metabotropic glutamate receptor 2", "test": "Antagonist activity at recombinant rat mGluR2 expressed in forskolin-stimulated CHO cells assessed as inhibition of (1S,3R)-ACPD induced cAMP production", "assay_type": "functional, cell-based"}, "[25]": {"test": "Ratio of drug level in brain to plasma in rat", "assay_type": "ADME", "settings": "brain and plasma"}, "[26]": {"organism": "Rattus norvegicus", "test": "Antiamnesic activity in rat assessed as inhibition of LY354740-induced impairment of working memory by DMTP test", "assay_type": "functional, organism-based"}, "[27]": {"tested_on": "Rattus norvegicus", "test": "Neurotoxicity in rat assessed as effect on grip strength upto 30 mg/kg, po", "assay_type": "toxicity, organism-based", "parameters": "dose 30 mg/kg, route oral", "settings": "in vivo"}, "[28]": {"tested_on": "Rattus norvegicus", "test": "Neurotoxicity in rat assessed as antidepressant-like activity at 1 mg/kg after 35 to 180 mins, po", "assay_type": "toxicity, organism-based", "parameters": "dose 1 mg/kg, route oral", "settings": "in vivo"}, "[29]": {"target": "Metabotropic glutamate receptor 2 (Homo sapiens, UniProt Q14416)", "sequence (Q14416 whole entry)": "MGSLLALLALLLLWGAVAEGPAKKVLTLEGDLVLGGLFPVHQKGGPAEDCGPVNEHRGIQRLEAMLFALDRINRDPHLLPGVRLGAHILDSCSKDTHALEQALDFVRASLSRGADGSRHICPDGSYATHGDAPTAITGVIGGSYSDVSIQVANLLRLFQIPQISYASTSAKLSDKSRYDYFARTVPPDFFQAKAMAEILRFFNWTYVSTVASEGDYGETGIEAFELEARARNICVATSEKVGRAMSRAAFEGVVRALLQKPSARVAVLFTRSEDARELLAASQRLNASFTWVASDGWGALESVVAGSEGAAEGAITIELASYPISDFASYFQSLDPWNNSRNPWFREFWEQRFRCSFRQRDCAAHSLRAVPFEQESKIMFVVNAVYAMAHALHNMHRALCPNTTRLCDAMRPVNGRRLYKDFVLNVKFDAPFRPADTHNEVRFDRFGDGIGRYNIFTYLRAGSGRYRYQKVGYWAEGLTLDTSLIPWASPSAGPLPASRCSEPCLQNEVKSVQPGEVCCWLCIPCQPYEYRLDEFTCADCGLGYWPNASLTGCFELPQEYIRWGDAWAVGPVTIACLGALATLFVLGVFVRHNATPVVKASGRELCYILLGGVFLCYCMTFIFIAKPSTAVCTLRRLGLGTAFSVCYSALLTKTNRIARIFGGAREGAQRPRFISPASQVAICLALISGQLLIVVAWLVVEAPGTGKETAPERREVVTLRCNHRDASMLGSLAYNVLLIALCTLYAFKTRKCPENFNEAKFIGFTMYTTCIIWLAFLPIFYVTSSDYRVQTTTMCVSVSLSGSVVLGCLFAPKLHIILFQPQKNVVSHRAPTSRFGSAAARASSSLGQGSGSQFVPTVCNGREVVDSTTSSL", "test": "Antagonist activity at human mGluR2 receptor expressed in CHO cells assessed as inhibition of GIRK current", "assay_type": "functional, cell-based"}, "[30]": {"test": "Half life in rat at 2.5 mg/kg, iv", "assay_type": "ADME, organism-based", "parameters": "dose 2.5 mg/kg, route intravenous", "settings": "in vivo"}, "[31]": {"tested_on": "Rattus norvegicus", "test": "Antagonist activity at rat mGluR3 assessed as inhibition of LY354740-induced hypoactivity at 10 mg/kg, po", "assay_type": "functional, organism-based", "parameters": "dose 10 mg/kg"}}, "note": "The source made the active and inactive calls. The rule behind the calls is not given here."}
{"smiles": "Cc1cc(-c2cccc(C3=Nc4cc(C)c(C(F)(F)F)cc4NC(=O)C3)c2)cc(C)n1", "values": [{"measurement": "Activity", "setting": "[1]", "value": "Dose-dependent effect"}, {"measurement": "solubility thermodynamic", "setting": "[2]", "value": 64, "unit": "µg/mL"}, {"measurement": "Activity", "setting": "[3]", "value": "Non-toxic"}, {"measurement": "Activity", "setting": "[4]", "value": "Active"}, {"measurement": "IC50", "setting": "[5]", "value": 2, "unit": "nM"}, {"measurement": "Activity", "setting": "[6]", "value": "Dose-dependent effect"}, {"measurement": "clearance", "setting": "[7]", "value": 5.7, "unit": "mL/min/kg"}, {"measurement": "Activity", "setting": "[8]", "value": "Active"}, {"measurement": "bioavailability", "setting": "[9]", "value": 52, "unit": "%"}, {"measurement": "IC50", "setting": "[10]", "value": "< 10", "unit": "nM"}, {"measurement": "Activity", "setting": "[11]", "value": "Dose-dependent effect"}, {"measurement": "Activity", "setting": "[12]", "value": "Active"}, {"measurement": "Activity", "setting": "[13]", "value": "Dose-dependent effect"}, {"measurement": "Activity", "setting": "[14]", "value": "Non-toxic"}, {"measurement": "IC50", "setting": "[15]", "value": 4800, "unit": "nM"}, {"measurement": "Vd", "setting": "[16]", "value": 5.8, "unit": "L/kg"}, {"measurement": "Activity", "setting": "[17]", "value": "Dose-dependent effect"}, {"measurement": "Activity", "setting": "[18]", "value": "Active"}, {"measurement": "CL", "setting": "[19]", "value": 4.7, "unit": "mL/min/kg"}, {"measurement": "Activity", "setting": "[20]", "value": "Active"}, {"measurement": "Activity", "setting": "[21]", "value": "Active"}, {"measurement": "IC50", "setting": "[22]", "value": "< 10", "unit": "nM"}, {"measurement": "Activity", "setting": "[23]", "value": "Dose-dependent effect"}, {"measurement": "IC50", "setting": "[24]", "value": 3, "unit": "nM"}, {"measurement": "Kp", "setting": "[25]", "value": 1.4}, {"measurement": "Activity", "setting": "[26]", "value": "Active"}, {"measurement": "Activity", "setting": "[27]", "value": "Non-toxic"}, {"measurement": "Activity", "setting": "[28]", "value": "Toxic"}, {"measurement": "IC50", "setting": "[29]", "value": 14, "unit": "nM"}, {"measurement": "half-life", "setting": "[30]", "value": 12.8, "unit": "h"}, {"measurement": "Activity", "setting": "[31]", "value": "Active"}]}
